Measured values taken from PMC3634732, “Chemical Chaperones Exceed the Chaperone Effects of RIC-3 in Promoting Assembly of Functional α7 AChRs” (PLoS ONE, 2013).

Legend:
[1] = test system: Rat α7 AChRs; details: cited from earlier work
[2] = target: T1, α7 AChRs on the surface of cells in the α7/RIC-3 line (Homo sapiens, UniProt P36544); experiment: Upregulation of surface 125I αBgt binding in the α7/RIC-3 cell line; type: cell-based; details: single chemical chaperone
T1 construct: expressed in transfected cells
T1 sequence (P36544 23-502): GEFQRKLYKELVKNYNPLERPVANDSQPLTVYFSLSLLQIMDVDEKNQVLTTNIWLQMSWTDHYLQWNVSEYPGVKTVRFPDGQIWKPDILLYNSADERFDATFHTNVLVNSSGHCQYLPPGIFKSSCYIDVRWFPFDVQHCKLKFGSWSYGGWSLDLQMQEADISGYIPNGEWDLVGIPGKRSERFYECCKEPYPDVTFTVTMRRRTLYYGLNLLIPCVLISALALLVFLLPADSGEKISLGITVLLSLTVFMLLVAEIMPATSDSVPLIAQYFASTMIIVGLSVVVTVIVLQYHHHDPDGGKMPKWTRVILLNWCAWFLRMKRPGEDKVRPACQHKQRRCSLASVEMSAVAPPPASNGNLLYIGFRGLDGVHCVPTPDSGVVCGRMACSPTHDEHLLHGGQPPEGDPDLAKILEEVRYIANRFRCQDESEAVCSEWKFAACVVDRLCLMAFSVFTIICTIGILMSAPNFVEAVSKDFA

[3] = test system: endogenous α7 AChRs in SH-SY5Y neuroblastoma cell line; experiment: Surface 125I αBgt binding in SH-SY5Y cells treated with chemical chaperones; type: cell-based, human
[4] = test system: α7 AChRs in primary cultures of rat hippocampal neurons; experiment: 125I αBgt binding to rat hippocampal neuron cultures; type: cell-based; details: for Increase of α7 AChR expression: VPA for 5 days
[5] = test system: α7/RIC-3 cell line; experiment: Tolerability of chemical chaperones in α7/RIC-3 culture; type: cell-based, human; details: 6 mM, applied for longer periods than a few days

Row | Expression of α7 AChRs on the cell surface [2] | Effect on 125I αBgt binding ([4]; rat hippocampal neurons (data not shown)) | SMILES | EC50 [1] [µM] | Increase of 125I αBgt binding to the cell surface ([3]; 24 hours, 10 µM) [fold] | Increase of α7 AChRs in the cell surface vs control ([3]; 24 hours, 300 µM) [fold] | Increase in expression of α7 AChRs on the cell surface, maximum ([3]; concentration-dependent) | Toxicity in culture [5] | Increase of α7 expression ([3]; 100 µM) [fold] | Increase of α7 AChR expression ([4]; at 20 days in culture) [%] | Increase of α7 AChR expression ([4]; cultures only 1 week old) [%] | Increase of 125I αBgt binding ([4]; long term treatment of primary cultures) [%] | Concentration giving maximum upregulation ([4]; rat hippocampal neurons) [mM]
1 |  |  | CC(=O)OCC[N+](C)(C)C [ACh] | 280 |  |  |  |  |  |  |  |  | 
2 | greatly increased | ineffective | O=C(O)CCCc1ccccc1 [PBA, 4-phenylbutyric acid] |  | 3 | 7.8 | up to 7.8 fold | toxic when applied for longer periods |  |  |  |  | 
3 | greatly increased |  | CCCC(CCC)C(=O)O [VPA, valproic acid] |  |  |  |  |  | 7.3 | 57 | 68 | 60 | 0.5
